# Experimental data reported in patent US20020111274A1, “1-alkyl-3-[1-(substituted phenyl) benzotriazol-6-yl] uracils” (BASF Aktiengesellschaft, priority 2000, published 2002).
# Columns and labels:
# Parameters in all cases: scale not given here
# [1] = system: CHEAL Lambsquarters, Common; assay: Postemergence herbicidal evaluation, CHEAL; assay type: in vivo, Chenopodium album, L.; conditions: postemergence spray, rated about two-three weeks after treatment
# Procedure, shortened: (§1)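 Seedlings grown about two weeks were sprayed with compound in 80/20 acetone/water containing 1.0% methylated seed oil, at the equivalent of about 0.006 to 0.400 kg/ha, through a nozzle at 40 psi. Plants were kept in the greenhouse and rated visually about two to three weeks after treatment.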
# [2] = system: CHEAL Lambsquarters, Common; assay: Preemergence herbicidal evaluation, CHEAL; assay type: in vivo, Chenopodium album, L.; conditions: preemergence
# Procedure, shortened: (§2)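 Visual ratings were taken four to five weeks after application. Before that, cups sown with seed in potting soil received a spray of compound dissolved in aqueous acetone, equivalent to about 0.013 to 0.800 kg/ha, and stood on greenhouse benches under conventional care.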
# GALAP Galium [3] = assay: Postemergence herbicidal evaluation, GALAP; assay type: in vivo, Galium aparine; conditions: postemergence spray, rated about two-three weeks after treatment
# Procedure, shortened: as §1
# SETVI Foxtail, Green [4] = assay: Preemergence herbicidal evaluation, SETVI; assay type: in vivo, Setaria viridis, (L.) Beau; conditions: preemergence
# Procedure, shortened: as §2
# GLXMAW Soybean, Williams [5] = assay: Postemergence herbicidal evaluation, GLXMAW; assay type: in vivo, Glycine max, (L.) Merr. cv Williams; conditions: postemergence spray, rated about two-three weeks after treatment
# Procedure, shortened: as §1
# [6] = system: TRZAWR Wheat, Winter, cv Riband; assay: Preemergence herbicidal evaluation, TRZAWR; assay type: in vivo, Triticum aestivum; conditions: preemergence
# Procedure, shortened: as §2
# [7] = system: IPOHE Morningglory, Ivyleaf; assay: Preemergence herbicidal evaluation, IPOHE; assay type: in vivo, Ipomoea hederacea, (L.) Jacq.; conditions: preemergence
# Procedure, shortened: as §2
# ABUTH Velvetleaf [8] = assay: Postemergence herbicidal evaluation, ABUTH; assay type: in vivo, Abutilon theophrasti, Medic.; conditions: postemergence spray, rated about two-three weeks after treatment
# Procedure, shortened: as §1
# CASOB Sicklepod [9] = assay: Preemergence herbicidal evaluation, CASOB; assay type: in vivo, Cassia obtusifolia, L.; conditions: preemergence
# Procedure, shortened: as §2
# SETVI Foxtail, Green [10] = assay: Postemergence herbicidal evaluation, SETVI; assay type: in vivo, Setaria viridis, (L.) Beau; conditions: postemergence spray, rated about two-three weeks after treatment
# Procedure, shortened: as §1
# ORYSAT Rice, Tebonnet [11] = assay: Preemergence herbicidal evaluation, ORYSAT; assay type: in vivo, Oryza sativa, (L.); conditions: preemergence
# Procedure, shortened: as §2
# ZEAMX Corn, Field [12] = assay: Preemergence herbicidal evaluation, ZEAMX; assay type: in vivo, Zea mays, L. (Sammel-Bezeichnung); conditions: preemergence
# Procedure, shortened: as §2
# [13] = system: TRZAWR Wheat, Winter, cv Riband; assay: Postemergence herbicidal evaluation, TRZAWR; assay type: in vivo, Triticum aestivum; conditions: postemergence spray, rated about two-three weeks after treatment
# Procedure, shortened: as §1
# GALAP Galium [14] = assay: Preemergence herbicidal evaluation, GALAP; assay type: in vivo, Galium aparine; conditions: preemergence
# Procedure, shortened: as §2
# ORYSAT Rice, Tebonnet [15] = assay: Postemergence herbicidal evaluation, ORYSAT; assay type: in vivo, Oryza sativa, (L.); conditions: postemergence spray, rated about two-three weeks after treatment
# Procedure, shortened: as §1
# CASOB Sicklepod [16] = assay: Postemergence herbicidal evaluation, CASOB; assay type: in vivo, Cassia obtusifolia, L.; conditions: postemergence spray, rated about two-three weeks after treatment
# Procedure, shortened: as §1
# GLXMAW Soybean, Williams [17] = assay: Preemergence herbicidal evaluation, GLXMAW; assay type: in vivo, Glycine max, (L.) Merr. cv Williams; conditions: preemergence
# Procedure, shortened: as §2
# AMBEL Ragweed, Common [18] = assay: Preemergence herbicidal evaluation, AMBEL; assay type: in vivo, Ambrosia artemisifolia, L.; conditions: preemergence
# Procedure, shortened: as §2
# ECHOG Barnyardgrass [19] = assay: Postemergence herbicidal evaluation, ECHOG; assay type: in vivo, Echinochloa crus-galli, (L.) Beau; conditions: postemergence spray, rated about two-three weeks after treatment
# Procedure, shortened: as §1
# ABUTH Velvetleaf [20] = assay: Preemergence herbicidal evaluation, ABUTH; assay type: in vivo, Abutilon theophrasti, Medic.; conditions: preemergence
# Procedure, shortened: as §2
# ZEAMX Corn, Field [21] = assay: Postemergence herbicidal evaluation, ZEAMX; assay type: in vivo, Zea mays, L. (Sammel-Bezeichnung); conditions: postemergence spray, rated about two-three weeks after treatment
# Procedure, shortened: as §1
# AMBEL Ragweed, Common [22] = assay: Postemergence herbicidal evaluation, AMBEL; assay type: in vivo, Ambrosia artemisifolia, L.; conditions: postemergence spray, rated about two-three weeks after treatment
# Procedure, shortened: as §1
# ECHOG Barnyardgrass [23] = assay: Preemergence herbicidal evaluation, ECHOG; assay type: in vivo, Echinochloa crus-galli, (L.) Beau; conditions: preemergence
# Procedure, shortened: as §2
# [24] = system: IPOHE Morningglory, Ivyleaf; assay: Postemergence herbicidal evaluation, IPOHE; assay type: in vivo, Ipomoea hederacea, (L.) Jacq.; conditions: postemergence spray, rated about two-three weeks after treatment
# Procedure, shortened: as §1
compound,measurement,setting,value
CC(C)c1ccc(-n2nnc3cc(F)c(-n4c(=O)cc(C(F)(F)F)n(C)c4=O)cc32)cc1 [Example 21],Postemergence herbicidal rating CHEAL,[1]; 0.008 kg/ha,8.0
same,Postemergence herbicidal rating CHEAL,[1]; 0.016 kg/ha,4.0
same,Postemergence herbicidal rating CHEAL,[1]; 0.032 kg/ha,9.0
same,Postemergence herbicidal rating CHEAL,[1]; 0.062 kg/ha,9.0
same,CHEAL herbicidal rating,[2]; rate 0.016 kg/ha,9.0
same,CHEAL herbicidal rating,[2]; rate 0.032 kg/ha,9.0
same,CHEAL herbicidal rating,[2]; rate 0.062 kg/ha,9.0
same,CHEAL herbicidal rating,[2]; rate 0.125 kg/ha,9.0
same,Postemergence herbicidal rating GALAP,GALAP Galium [3]; 0.008 kg/ha,2.0
same,Postemergence herbicidal rating GALAP,GALAP Galium [3]; 0.016 kg/ha,4.0
same,Postemergence herbicidal rating GALAP,GALAP Galium [3]; 0.032 kg/ha,4.0
same,Postemergence herbicidal rating GALAP,GALAP Galium [3]; 0.062 kg/ha,9.0
same,SETVI herbicidal rating,"SETVI Foxtail, Green [4]; rate 0.016 kg/ha",0.0
same,SETVI herbicidal rating,"SETVI Foxtail, Green [4]; rate 0.032 kg/ha",2.0
same,SETVI herbicidal rating,"SETVI Foxtail, Green [4]; rate 0.062 kg/ha",6.5
same,SETVI herbicidal rating,"SETVI Foxtail, Green [4]; rate 0.125 kg/ha",9.0
same,Postemergence herbicidal rating GLXMAW,"GLXMAW Soybean, Williams [5]; 0.008 kg/ha",4.5
same,Postemergence herbicidal rating GLXMAW,"GLXMAW Soybean, Williams [5]; 0.016 kg/ha",5.0
same,Postemergence herbicidal rating GLXMAW,"GLXMAW Soybean, Williams [5]; 0.032 kg/ha",5.5
same,Postemergence herbicidal rating GLXMAW,"GLXMAW Soybean, Williams [5]; 0.062 kg/ha",5.5
same,TRZAWR herbicidal rating,[6]; rate 0.016 kg/ha,0.0
same,TRZAWR herbicidal rating,[6]; rate 0.032 kg/ha,0.0
same,TRZAWR herbicidal rating,[6]; rate 0.062 kg/ha,0.0
same,TRZAWR herbicidal rating,[6]; rate 0.125 kg/ha,1.0
same,IPOHE herbicidal rating,[7]; rate 0.016 kg/ha,0.0
same,IPOHE herbicidal rating,[7]; rate 0.032 kg/ha,1.5
same,IPOHE herbicidal rating,[7]; rate 0.062 kg/ha,2.0
same,IPOHE herbicidal rating,[7]; rate 0.125 kg/ha,3.5
same,Postemergence herbicidal rating ABUTH,ABUTH Velvetleaf [8]; 0.008 kg/ha,9.0
same,Postemergence herbicidal rating ABUTH,ABUTH Velvetleaf [8]; 0.016 kg/ha,9.0
same,Postemergence herbicidal rating ABUTH,ABUTH Velvetleaf [8]; 0.032 kg/ha,9.0
same,Postemergence herbicidal rating ABUTH,ABUTH Velvetleaf [8]; 0.062 kg/ha,9.0
same,CASOB herbicidal rating,CASOB Sicklepod [9]; rate 0.016 kg/ha,0.0
same,CASOB herbicidal rating,CASOB Sicklepod [9]; rate 0.032 kg/ha,0.0
same,CASOB herbicidal rating,CASOB Sicklepod [9]; rate 0.062 kg/ha,1.5
same,CASOB herbicidal rating,CASOB Sicklepod [9]; rate 0.125 kg/ha,2.0
same,Postemergence herbicidal rating SETVI,"SETVI Foxtail, Green [10]; 0.008 kg/ha",0.0
same,Postemergence herbicidal rating SETVI,"SETVI Foxtail, Green [10]; 0.016 kg/ha",0.0
same,Postemergence herbicidal rating SETVI,"SETVI Foxtail, Green [10]; 0.032 kg/ha",5.0
same,Postemergence herbicidal rating SETVI,"SETVI Foxtail, Green [10]; 0.062 kg/ha",5.0
same,ORYSAT herbicidal rating,"ORYSAT Rice, Tebonnet [11]; rate 0.016 kg/ha",0.0
same,ORYSAT herbicidal rating,"ORYSAT Rice, Tebonnet [11]; rate 0.032 kg/ha",0.0
same,ORYSAT herbicidal rating,"ORYSAT Rice, Tebonnet [11]; rate 0.062 kg/ha",0.0
same,ORYSAT herbicidal rating,"ORYSAT Rice, Tebonnet [11]; rate 0.125 kg/ha",0.0
same,ZEAMX herbicidal rating,"ZEAMX Corn, Field [12]; rate 0.016 kg/ha",0.0
same,ZEAMX herbicidal rating,"ZEAMX Corn, Field [12]; rate 0.032 kg/ha",0.0
same,ZEAMX herbicidal rating,"ZEAMX Corn, Field [12]; rate 0.062 kg/ha",1.0
same,ZEAMX herbicidal rating,"ZEAMX Corn, Field [12]; rate 0.125 kg/ha",3.5
same,Postemergence herbicidal rating TRZAWR,[13]; 0.008 kg/ha,3.5
same,Postemergence herbicidal rating TRZAWR,[13]; 0.016 kg/ha,4.0
same,Postemergence herbicidal rating TRZAWR,[13]; 0.032 kg/ha,4.0
same,Postemergence herbicidal rating TRZAWR,[13]; 0.062 kg/ha,4.0
same,GALAP herbicidal rating,GALAP Galium [14]; rate 0.016 kg/ha,0.0
same,GALAP herbicidal rating,GALAP Galium [14]; rate 0.032 kg/ha,0.0
same,GALAP herbicidal rating,GALAP Galium [14]; rate 0.062 kg/ha,0.0
same,GALAP herbicidal rating,GALAP Galium [14]; rate 0.125 kg/ha,0.0
same,Postemergence herbicidal rating ORYSAT,"ORYSAT Rice, Tebonnet [15]; 0.008 kg/ha",3.0
same,Postemergence herbicidal rating ORYSAT,"ORYSAT Rice, Tebonnet [15]; 0.016 kg/ha",3.5
same,Postemergence herbicidal rating ORYSAT,"ORYSAT Rice, Tebonnet [15]; 0.032 kg/ha",3.5
same,Postemergence herbicidal rating ORYSAT,"ORYSAT Rice, Tebonnet [15]; 0.062 kg/ha",3.5
same,Postemergence herbicidal rating CASOB,CASOB Sicklepod [16]; 0.008 kg/ha,0.0
same,Postemergence herbicidal rating CASOB,CASOB Sicklepod [16]; 0.016 kg/ha,0.0
same,Postemergence herbicidal rating CASOB,CASOB Sicklepod [16]; 0.032 kg/ha,1.0
same,Postemergence herbicidal rating CASOB,CASOB Sicklepod [16]; 0.062 kg/ha,2.0
same,GLXMAW herbicidal rating,"GLXMAW Soybean, Williams [17]; rate 0.016 kg/ha",0.0
same,GLXMAW herbicidal rating,"GLXMAW Soybean, Williams [17]; rate 0.032 kg/ha",0.0
same,GLXMAW herbicidal rating,"GLXMAW Soybean, Williams [17]; rate 0.062 kg/ha",0.5
same,GLXMAW herbicidal rating,"GLXMAW Soybean, Williams [17]; rate 0.125 kg/ha",1.0
same,AMBEL herbicidal rating,"AMBEL Ragweed, Common [18]; rate 0.016 kg/ha",0.0
same,AMBEL herbicidal rating,"AMBEL Ragweed, Common [18]; rate 0.032 kg/ha",3.0
same,AMBEL herbicidal rating,"AMBEL Ragweed, Common [18]; rate 0.062 kg/ha",3.5
same,AMBEL herbicidal rating,"AMBEL Ragweed, Common [18]; rate 0.125 kg/ha",7.5
same,Postemergence herbicidal rating ECHCG,ECHOG Barnyardgrass [19]; 0.008 kg/ha,0.0
same,Postemergence herbicidal rating ECHCG,ECHOG Barnyardgrass [19]; 0.016 kg/ha,0.0
same,Postemergence herbicidal rating ECHCG,ECHOG Barnyardgrass [19]; 0.032 kg/ha,0.0
same,Postemergence herbicidal rating ECHCG,ECHOG Barnyardgrass [19]; 0.062 kg/ha,0.0
same,ABUTH herbicidal rating,ABUTH Velvetleaf [20]; rate 0.016 kg/ha,0.0
same,ABUTH herbicidal rating,ABUTH Velvetleaf [20]; rate 0.032 kg/ha,4.5
same,ABUTH herbicidal rating,ABUTH Velvetleaf [20]; rate 0.062 kg/ha,6.0
same,ABUTH herbicidal rating,ABUTH Velvetleaf [20]; rate 0.125 kg/ha,9.0
same,Postemergence herbicidal rating ZEAMX,"ZEAMX Corn, Field [21]; 0.008 kg/ha",4.5
same,Postemergence herbicidal rating ZEAMX,"ZEAMX Corn, Field [21]; 0.016 kg/ha",4.5
same,Postemergence herbicidal rating ZEAMX,"ZEAMX Corn, Field [21]; 0.032 kg/ha",4.5
same,Postemergence herbicidal rating ZEAMX,"ZEAMX Corn, Field [21]; 0.062 kg/ha",5.0
same,Postemergence herbicidal rating AMBEL,"AMBEL Ragweed, Common [22]; 0.008 kg/ha",2.0
same,Postemergence herbicidal rating AMBEL,"AMBEL Ragweed, Common [22]; 0.016 kg/ha",9.0
same,Postemergence herbicidal rating AMBEL,"AMBEL Ragweed, Common [22]; 0.032 kg/ha",9.0
same,Postemergence herbicidal rating AMBEL,"AMBEL Ragweed, Common [22]; 0.062 kg/ha",9.0
same,ECHCG herbicidal rating,ECHOG Barnyardgrass [23]; rate 0.016 kg/ha,0.0
same,ECHCG herbicidal rating,ECHOG Barnyardgrass [23]; rate 0.032 kg/ha,0.0
same,ECHCG herbicidal rating,ECHOG Barnyardgrass [23]; rate 0.062 kg/ha,1.0
same,ECHCG herbicidal rating,ECHOG Barnyardgrass [23]; rate 0.125 kg/ha,3.5
same,Postemergence herbicidal rating IPOHE,[24]; 0.008 kg/ha,9.0
same,Postemergence herbicidal rating IPOHE,[24]; 0.016 kg/ha,9.0
same,Postemergence herbicidal rating IPOHE,[24]; 0.032 kg/ha,6.0
same,Postemergence herbicidal rating IPOHE,[24]; 0.062 kg/ha,9.0
